Assay results: patent publication US8207176B2 (Glaxo Group Limited, priority 2005, dated 2012)
“Also recorded” adds a separate entry of the source. Structures can show the parent of a compound that is named as a salt.

System: influx of neutrophils to the lung in LPS-challenged rats
Experiment: Rat LPS neutrophilia model
Type: in vivo
Conditions: intratracheal, LPS aerosol 100 ug/ml 15 min, lavage 4 hours later, in at least one of the range of conditions tested, significant p<0.05, nonsignificant p>0.05
Experimental: The effect of compounds on the influx of neutrophils to the lung in LPS-challenged rats is evaluated as follows. The test compound is suspended in one of the following solutions: 0.5% tween 80/PBS, 0.5% tween 80/saline, 10% EtOH/saline (with pH adjusted to 2.0, or 8.0 with HCl, or unadjusted), Saline @ pH 2.0, 6.5 or 8.0, 0.5% Tragacanth, 1% DMSO/20% Encapsin/Saline, or acidified 5% Tragacanth. The suspension process may be aided by the use of a glass homogenizer. For intratracheal administration, the animals are anesthetized with inhaled isoflurane and placed in a supine position, the trachea is intubated with a steel gavage needle (1.5 inch, 22 gauge, small ball) or a Penn-Century Microsprayer Aerosolizer (model IA-IB) and 200 ul of dosing solution is delivered. The animals are visually monitored during the recovery process, which typically occurs within two minutes. It is noted that the test compounds may be alternatively administered via the microsprayer in a dry powder blend with a suitable excipient, such as lactose.
Rats treated with compound or vehicle (15 min-24 hours pretreatment) are exposed to an LPS aerosol (100 ug/ml) for 15 min. Four hours later the rats are euthanized with pentobarbital (100 mg/kg, i.p.) and the airways are lavaged with 5 washes of 5 ml of phosphate buffered saline. The harvested cells are stained (Diffquick) and counted to determine total and differential cell data. […] Inhibition of neutrophil levels relative to no compound controls is calculated based on the differential counts.
The data is obtained as % inhibition using a particular concentration and pretreat time.

SMILES	inhibition of neutrophilia (neutrophil levels in lung lavage relative to no compound controls)
Cc1ccc(C(=O)NC2CC2)cc1-c1nc(N2CCC(N3CCC(C)CC3)CC2)nc2c1ccc(=O)n2-c1c(F)cccc1F [Example 178, N-cyclopropyl-3-[8-(2,6-difluorophenyl)-2-(4-methyl-1,4′-bipiperidin-1′-yl)-7-oxo-7,8-dihydropyrido[2,3-d]pyrimidin-4-yl]-4-methylbenzamide]	statistically nonsignificant inhibition
Cc1ccc(C(=O)Nc2nccs2)cc1-c1nc(NCCCNC(C)C)nc2c1ccc(=O)n2-c1c(F)cccc1F [Example 101, 3-[8-(2,6-difluorophenyl)-2-({3-[(1-methylethyl)amino]propyl}amino)-7-oxo-7,8-dihydropyrido[2,3-d]pyrimidin-4-yl]-4-methyl-N-1,3-thiazol-2-ylbenzamide]	statistically significant inhibition
CCNC(=O)c1ccc(C)c(-c2nc(N3CCC(N4CCC(C)CC4)CC3)nc3c2ccc(=O)n3-c2c(F)cccc2F)c1 [Example 173, 3-[8-(2,6-difluorophenyl)-2-(4-methyl-1,4′-bipiperidin-1′-yl)-7-oxo-7,8-dihydropyrido[2,3-d]pyrimidin-4-yl]-N-ethyl-4-methylbenzamide]	statistically significant inhibition
CCN(CC)CCCNc1nc(-c2cc(C(=O)N(C)C)ccc2C)c2ccc(=O)n(-c3c(F)cccc3F)c2n1 [Example 120, 3-[2-{[3-(diethylamino)-propyl]amino}-8-(2,6-difluorophenyl)-7-oxo-7,8-dihydropyrido[2,3-d]-pyrimidin-4-yl]-N,N,4-trimethylbenzamide]	statistically nonsignificant inhibition; also recorded: inactive
Cc1ccc(C(=O)Nc2nccs2)cc1-c1nc(NCCCNC(C)(C)C)nc2c1ccc(=O)n2-c1c(F)cccc1F [Example 102, 3-[8-(2,6-difluorophenyl)-2-({3-[(1,1-dimethylethyl)amino]propyl}amino)-7-oxo-7,8-dihydropyrido[2,3-d]pyrimidin-4-yl]-4-methyl-N-1,3-thiazol-2-ylbenzamide]	statistically nonsignificant inhibition
Cc1ccc(C(=O)Nc2ccc(F)cc2)cc1-c1nc(N(C)CCN(C)C)nc2c1ccc(=O)n2-c1c(F)cccc1F [Example 99, 3-{8-(2,6-difluorophenyl)-2-[[2-(dimethylamino)ethyl](methyl)amino]-7-oxo-7,8-dihydropyrido[2,3-d]pyrimidin-4-yl}-N-(4-fluorphenyl)-4-methylbenzamide]	statistically nonsignificant inhibition
Cc1ccc(C(=O)Nc2ccc(F)cc2)cc1-c1nc(N(C)CCCN(C)C)nc2c1ccc(=O)n2-c1c(F)cccc1F [Example 115, 3-{8-(2,6-difluorophenyl)-2-[[3-(dimethylamino)propyl](methyl)amino]-7-oxo-7,8-dihydropyrido[2,3-d]pyrimidin-4-yl}-N-(4-fluorophenyl)-4-methylbenzamide]	statistically nonsignificant inhibition
Cc1ccc(C(=O)Nc2nccs2)cc1-c1nc(N(C)CCCN(C)C)nc2c1ccc(=O)n2-c1c(F)cccc1F [Example 107, 3-{8-(2,6-difluorophenyl)-2-[[3-(dimethylamino)propyl](methyl)amino]-7-oxo-7,8-dihydropyrido[2,3-d]pyrimidin-4-yl}-4-methyl-N-1,3-thiazol-2-ylbenzamide]	statistically significant inhibition
CNCCNc1nc(-c2cc(C(=O)NC3CCCC3)ccc2C)c2ccc(=O)n(-c3c(F)cccc3F)c2n1 [Example 58, N-cyclopentyl-3-(8-(2,6-difluorophenyl)-2-{[2-(methylamino)ethyl]amino}-7-oxo-7,8-dihydropyrido[2,3-d]pyrimidin-4-yl)-4-methylbenzamide]	statistically significant inhibition
Cc1ccc(C(=O)Nc2nccs2)cc1-c1nc(N2CCC(N)CC2)nc2c1ccc(=O)n2-c1c(F)cccc1F [Example 73, 3-[2-(4-amino-1-piperidinyl)-8-(2,6-difluorophenyl)-7-oxo-7,8-dihydropyrido[2,3-d]pyrimidin-4-yl]-4-methyl-N-1,3-thiazol-2-ylbenzamide]	statistically significant inhibition
CCCNC(=O)c1cc(F)c(C)c(-c2nc(NCCCN(CC)CC)nc3c2ccc(=O)n3-c2c(F)cccc2F)c1 [Example 181, 3-[2-{[3-(diethylamino)propyl]amino}-8-(2,6-difluorophenyl)-7-oxo-7,8-dihydropyrido[2,3-d]-pyrimidin-4-yl]-5-fluoro-4-methyl-N-propylbenzamide]	statistically nonsignificant inhibition
Cc1ccc(C(=O)Nc2nccs2)cc1-c1nc(NC2CC(C)(C)NC(C)(C)C2)nc2c1ccc(=O)n2-c1c(F)cccc1F [Example 67, 3-{8-(2,6-difluorophenyl)-7-oxo-2-[(2,2,6,6-tetramethyl-4-piperidinyl)amino]-7,8-dihydropyrido[2,3-d]pyrimidin-4-yl}-4-methyl-N-1,3-thiazol-2-ylbenzamide]	statistically nonsignificant inhibition
CCN(CC)CCCNc1nc(-c2cc(C(=O)NCC3CC3)ccc2C)c2ccc(=O)n(-c3c(F)cccc3F)c2n1 [Example 138, N-(cyclopropylmethyl)-3-[2-{[3-(diethylamino)propyl]amino}-8-(2,6-difluorophenyl)-7-oxo-7,8-dihydropyrido[2,3-d]pyridin-4-yl]-4-methylbenzamide trifluoroacetate]	statistically nonsignificant inhibition
Cc1ccc(C(=O)NC2CC2)cc1-c1nc(N2CCC(N)CC2)nc2c1ccc(=O)n2-c1c(F)cccc1F [Example 22, 3-[2-(4-amino-1-piperidinyl)-8-(2,6-difluorophenyl)-7-oxo-7,8-dihydropyrido[2,3-d]pyrimidin-4-yl]-N-cyclopropyl-4-methylbenzamide]	statistically significant inhibition
CCCNC(=O)c1ccc(C)c(-c2nc(N3CCC(N)CC3)nc3c2ccc(=O)n3-c2c(F)cccc2F)c1 [Example 69, 3-[2-(4-amino-1-piperidinyl)-8-(2,6-difluorophenyl)-7-oxo-7,8-dihydropyrido[2,3-d]pyrimidin-4-yl]-4-methyl-N-propylbenzamide]	statistically significant inhibition
Cc1ccc(C(=O)NCC(F)(F)F)cc1-c1nc(N2CCC(N3CCC(C)CC3)CC2)nc2c1ccc(=O)n2-c1c(F)cccc1F [Example 172, 3-[8-(2,6-difluorophenyl)-2-(4-methyl-1,4′-bipiperidin-1′-yl)-7-oxo-7,8-dihydropyrido[2,3-d]pyrimidin-4-yl]-4-methyl-N-(2,2,2-trifluoroethyl)benzamide]	inactive
